The text below walks through data of patent US7491794B2, “Macrocyclic compounds as inhibitors of viral replication” (Intermune, Inc., priority 2003, dated 2009).

The structures appear in SMILES notation.

For the first assay, the target named is T1, NS3-NS4A protease (Hepatitis C virus genotype 1a, UniProt P27958).
T1 construct: Recombinant E. coli or Baculovirus full-length NS3 was diluted to 3.33 μM with assay buffer; made in house; host or cells: E. coli or baculovirus (BV) system
T1 sequence (P27958 1027-1657): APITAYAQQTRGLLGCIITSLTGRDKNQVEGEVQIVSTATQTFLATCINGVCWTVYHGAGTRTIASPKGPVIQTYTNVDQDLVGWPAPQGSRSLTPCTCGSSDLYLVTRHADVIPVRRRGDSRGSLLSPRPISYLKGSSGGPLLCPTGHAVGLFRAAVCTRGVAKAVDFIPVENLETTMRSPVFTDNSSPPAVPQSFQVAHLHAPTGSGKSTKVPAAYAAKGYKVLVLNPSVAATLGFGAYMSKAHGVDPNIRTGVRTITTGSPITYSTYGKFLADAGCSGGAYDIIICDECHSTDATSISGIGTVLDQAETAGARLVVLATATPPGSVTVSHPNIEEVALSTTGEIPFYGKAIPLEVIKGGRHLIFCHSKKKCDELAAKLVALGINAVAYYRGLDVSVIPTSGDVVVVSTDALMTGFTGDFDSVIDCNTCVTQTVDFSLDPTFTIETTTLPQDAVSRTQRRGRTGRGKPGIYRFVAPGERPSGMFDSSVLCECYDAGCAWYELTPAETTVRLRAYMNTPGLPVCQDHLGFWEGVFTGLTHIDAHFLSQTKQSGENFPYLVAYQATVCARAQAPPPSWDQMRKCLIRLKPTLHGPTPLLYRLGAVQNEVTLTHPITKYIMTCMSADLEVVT
Put plainly: NS3-NS4A protease assay (NS3 inhibition assay, RETS1 substrate), Section B. The class given is biochemical.
Conditions: not given
As to the method:
NS3 complex formation with NS4A-2
Recombinant E. coli or Baculovirus full-length NS3 was diluted to 3.33 μM with assay buffer and the material transferred to an eppendorf tube and place in water bath in 4° C. refrigerator. The appropriate amount of NS4A-2 to 8.3 mM in assay buffer was added to equal the volume of NS3 in step 2.1.1 (conversion factor −3.8 mg/272 μL assay buffer). The material was transferred to an eppendorf tube and placed in a water bath in a 4° C. refrigerator.
After equilibration to 4° C., equal volumes of NS3 and NS4A-2 solutions were combined in an eppendorf tube, mixed gently with a manual pipettor, and the mixture incubated for 15 minutes in the 4° C. water bath. Final concentrations in the mixture were 1.67 μM NS3, 4.15 mM NS4A-2 (2485-fold molar excess NS4A-2).
After 15 minutes at 4° C., the NS3/NS4A-2 eppendorf tube was removed and placed in a room temperature water bath for 10 minutes. NS3/NS4A-2 was aliquoted at appropriate volumes and store at −80° C. (E. coli NS3 run at 2 nM in assay, aliquot at 25 μL. BV NS3 run at 3 nM in assay, aliquot at 30 μL.
Step 2.2.5. Sample compounds were dissolved to 10 mM in DMSO then diluted to 2.5 mM (1:4) in DMSO.
Step 2.2.6. The E. coli NS3/NS4A-2 was diluted to 4 nM NS3 (1:417.5 of 1.67 μM stock−18 μL 1.67 μM stock+7497 μL assay buffer).
The BV NS3/NS4A-2 was diluted to 6 nM NS3 (1:278.3 of 1.67 μM stock−24 μL 1.67 μM stock+6655 μL assay buffer).
Step 2.2.7. Using the manual multichannel pipettor, and being careful not to introduce bubbles into the plate, 50 μL assay buffer was added to wells A01-H01 of a black Costar 96-well polypropylene storage plate.
Step 2.2.8. Using the manual multichannel pipettor, and being careful not to introduce bubbles into the plate, 50 μL of diluted NS3/NS4A-2 from step 2.2.6 was added to wells A02-H12 of plate in step 2.2.7.
Step 2.2.9. Using the manual multichannel pipettor, and being careful not to introduce bubbles into the plate, 25 μL of the wells in drug dilution plate in step 2.2.5 were transferred to corresponding wells in assay plate in step 2.2.8. The tips on multichannel pipettor were changed for each row of compounds transferred.
Step 2.2.10. Using the manual multichannel pipettor, and being careful not to introduce bubbles into the plate, the wells from the assay plate in step 2.2.9 were mixed by aspirating and dispensing 35 μL of the 75 μL in each well five times. The tips on multichannel pipettor were changed for each row of wells mixed.
Step 2.2.11. The plate was covered with a polystyrene plate lid, and the plate from step 2.2.10 containing NS3 protease and sample compounds was pre-incubated 10 minutes at room temperature.
While the plate from step 2.2.11 was pre-incubating, the RETS1 substrate was diluted in a 15 mL polypropylene centrifuge tube. The RETS1 substrate was diluted to 8 μM (1:80.75 of 646 μM stock−65 μL 646 μM stock+5184 μL assay buffer).
After the plate in step 2.2.11 was done pre-incubating, and using the manual multichannel, 25 μL of substrate was added to all wells on the plate. The contents of the wells were quickly mixed, as in step 2.2.10, but mixing 65 μL of the 100 μL in the wells.
The plate was read in kinetic mode on the Molecular Devices SpectraMax Gemini XS plate reader. Reader settings: Read time: 30 minutes, Interval: 36 seconds, Reads: 51, Excitation λ: 335 nm, Emission λ: 495 nm, cutoff: 475 nm, Automix: off, Calibrate: once, PMT: high, Reads/well: 6, Vmax pts: 21 or 28/51 depending on length of linearity of reaction.
IC50s were determined using a four parameter curve fit equation, and converted to Ki's using the following Km's:
where Ki=IC50/(1+[S]/Km))
A word on the IC50: it is the point on the concentration scale where inhibition reaches its midpoint. Regarding `CC(C)[C@@H](NC(=O)OC(C)(C)C)C(=O)N[C@H]1CCCCC/C=C\[C@@H]2C[C@@]2(C(=O)O)NC(=O)[C@@H]2C[C@@H](OC(=O)N3CCc4ccccc4C3)CN2C1=O` [AR00298989, (1S,4R,6S,14S,18R)-14-(2-tert-Butoxycarbonylamino-3-methyl-butyrylamino)-18-(3,4-dihydro-1H-isoquinoline-2-carbonyloxy)-2,15-dioxo-3,16-diaza-tricyclo[14.3.0.0^4,6]nonadec-7-ene-4-carboxylic acid], the IC50 was less than 10 µM.
The compound `CC(C)[C@@H](N)C(=O)N[C@H]1CCCCC/C=C\[C@@H]2C[C@@]2(C(=O)O)NC(=O)[C@@H]2C[C@@H](OC(=O)N3CCc4ccccc4C3)CN2C1=O` [AR00298990, (1S,4R,6S,14S,18R)-14-(2-Amino-3-methyl-butyrylamino)-18-(3,4-dihydro-1H-isoquinoline-2-carbonyloxy)-2,15-dioxo-3,16-diaza-tricyclo[14.3.0.0^4,6]nonadec-7-ene-4-carboxylic acid] came in with an IC50 of less than 10 µM.

Still in this assay, the particulars now being: read-out: NS3-NS4A IC50.
For the compound `CC(C)(C)OC(=O)N[C@H]1CCCCC/C=C\[C@H]2C[C@]2(C(=O)O)NC(=O)[C@@H]2C[C@@H](OC(=O)N3CCc4ccccc4C3)CN2C1=O` [AR00220122, (1S,4S,6R,14S,18R)-14-tert-Butoxycarbonylamino-18-(3,4-dihydro-1H-isoquinoline-2-carbonyloxy)-2,15-dioxo-3,16-diaza-tricyclo[14.3.0.0^4,6]nonadec-7-ene-4-carboxylic acid], the IC50 is less than 50 µM.
The same measure, in the same setting: in the case of `COc1cc2c(cc1OC)CN(C(=O)O[C@@H]1C[C@H]3C(=O)N[C@]4(C(=O)O)C[C@H]4/C=C\CCCCC[C@H](NC(=O)OC(C)(C)C)C(=O)N3C1)CC2` [AR00226824, (1S,4R,6S,14S,18R)-14-tert-Butoxycarbonylamino-18-(6,7-dimethoxy-3,4-dihydro-1H-isoquinoline-2-carbonyloxy)-2,15-dioxo-3,16-diaza-tricyclo[14.3.0.0^4,6]nonadec-7-ene-4-carboxylic acid] it was less than 10 µM.
As to `CC(C)(C)OC(=O)N[C@H]1CCCCC/C=C\[C@@H]2C[C@@]2(C(=O)O)NC(=O)[C@@H]2C[C@@H](OC(=O)N3CCc4c([nH]c5ccccc45)C3)CN2C1=O` [AR00226825, (1S,4R,6S,14S,18R)-14-tert-Butoxycarbonylamino-2,15-dioxo-18-(1,3,4,9-tetrahydro-b-carboline-2-carbonyloxy)-3,16-diaza-tricyclo[14.3.0.0^4,6]nonadec-7-ene-4-carboxylic acid], the IC50 is less than 10 µM.
On the same count and under the same terms, in the case of `O=C(N[C@H]1CCCCC/C=C\[C@@H]2C[C@@]2(C(=O)O)NC(=O)[C@@H]2C[C@@H](OC(=O)N3CCc4ccccc4C3)CN2C1=O)OC1CCCC1` [AR00247310, (1S,4R,6S,14S,18R)-14-Cyclopentyloxycarbonylamino-18-(3,4-dihydro-1H-isoquinoline-2-carbonyloxy)-2,15-dioxo-3,16-diaza-tricyclo[14.3.0.0^4,6]nonadec-7-ene-4-carboxylic acid] it was less than 1 µM; in that of `CC(C)(C)C(=O)N[C@H]1CCCCC/C=C\[C@@H]2C[C@@]2(C(=O)O)NC(=O)[C@@H]2C[C@@H](OC(=O)N3CCc4ccccc4C3)CN2C1=O` [AR00248687, (1S,4R,6S,14S,18R)-18-(3,4-Dihydro-1H-isoquinoline-2-carbonyloxy)-14-(2,2-dimethyl-propionylamino)-2,15-dioxo-3,16-diaza-tricyclo[14.3.0.0^4,6]nonadec-7-ene-4-carboxylic acid], less than 1 µM; in that of `CC(C)C(=O)N[C@H]1CCCCC/C=C\[C@@H]2C[C@@]2(C(=O)O)NC(=O)[C@@H]2C[C@@H](OC(=O)N3CCc4ccccc4C3)CN2C1=O` [AR00248688, (1S,4R,6S,14S,18R)-18-(3,4-Dihydro-1H-isoquinoline-2-carbonyloxy)-14-isobutyrylamino-2,15-dioxo-3,16-diaza-tricyclo[14.3.0.0^4,6]nonadec-7-ene-4-carboxylic acid], less than 10 µM.
The same measure, in the same setting: in the case of `O=C(N[C@H]1CCCCC/C=C\[C@@H]2C[C@@]2(C(=O)O)NC(=O)[C@@H]2C[C@@H](OC(=O)N3CCc4ccccc4C3)CN2C1=O)C1CCCC1` [AR00248689, (1S,4R,6S,14S,18R)-14-(Cyclopentanecarbonyl-amino)-18-(3,4-dihydro-1H-isoquinoline-2-carbonyloxy)-2,15-dioxo-3,16-diaza-tricyclo[14.3.0.0^4,6]nonadec-7-ene-4-carboxylic acid] it was less than 1 µM.
On the same count and under the same terms, in the case of `CC(C)(C)OC(=O)N[C@H]1CCCCC/C=C\[C@@H]2C[C@@]2(C(=O)O)NC(=O)[C@@H]2C[C@@H](NC(=O)N3CCc4ccccc4C3)CN2C1=O` [AR00287262, (1S,4R,6S,14S,18R)-14-tert-butoxycarbonylamino-18-[(3,4-dihydro-1H-isoquinoline-2-carbonyl)-amino]-2,15-dioxo-3,16-diaza-tricyclo[14.3.0.0^4,6]nonadec-7-ene-4-carboxylic acid] it was less than 10 µM; in that of `CC(C)(C)OC(=O)N[C@H]1CCCCC/C=C\[C@@H]2C[C@@]2(C(=O)O)NC(=O)[C@@H]2C[C@@H](OC(=O)N3CCc4cccc(C(F)(F)F)c4C3)CN2C1=O` [AR00294382, (1S,4R,6S,14S,18R)-14-tert-Butoxycarbonylamino-2,15-dioxo-18-(8-trifluoromethyl-3,4-dihydro-1H-isoquinoline-2-carbonyloxy)-3,16-diaza-tricyclo[14.3.0.0^4,6]nonadec-7-ene-4-carboxylic acid], less than 1 µM; in that of `CC(C)(C)OC(=O)N[C@H]1CCCCC/C=C\[C@@H]2C[C@@]2(C(=O)O)NC(=O)[C@@H]2C[C@@H](OC(=O)N3CCc4cc(C(F)(F)F)ccc4C3)CN2C1=O` [AR00294383, (1S,4R,6S,14S,18R)-14-tert-Butoxycarbonylamino-2,15-dioxo-18-(6-trifluoromethyl-3,4-dihydro-1H-isoquinoline-2-carbonyloxy)-3,16-diaza-tricyclo[14.3.0.0^4,6]nonadec-7-ene-4-carboxylic acid], less than 10 µM.
Regarding `CC(C)(C)OC(=O)N[C@H]1CCCCC/C=C\[C@@H]2C[C@@]2(C(=O)O)NC(=O)[C@@H]2C[C@@H](OC(=O)N3CCc4ccccc4C3CN3CCCCC3)CN2C1=O` (stereo partly drawn) [AR00301383, (1S,4R,6S,14S,18R)-14-tert-Butoxycarbonylamino-2,15-dioxo-18-(1-piperidin-1-ylmethyl-3,4-dihydro-1H-isoquinoline-2-carbonyloxy)-3,16-diaza-tricyclo[14.3.0.0^4,6]nonadec-7-ene-4-carboxylic acid], the IC50 is less than 10 µM.
`CC(C)(C)OC(=O)N[C@H]1CCCCC/C=C\[C@@H]2C[C@@]2(C(=O)O)NC(=O)[C@@H]2C[C@@H](OC(=O)N3CCc4ccc(Cl)cc4C3)CN2C1=O` [AR00304062, (1S,4R,6S,14S,18R)-14-tert-Butoxycarbonylamino-18-(7-chloro-3,4-dihydro-1H-isoquinoline-2-carbonyloxy)-2,15-dioxo-3,16-diaza-tricyclo[14.3.0.0^4,6]nonadec-7-ene-4-carboxylic acid]: the IC50 was less than 10 µM.
The same measure, in the same setting: as for `CC(C)(C)OC(=O)N[C@H]1CCCCC/C=C\[C@@H]2C[C@@]2(C(=O)O)NC(=O)[C@@H]2C[C@@H](OC(=O)N3CCc4nc(N)sc4C3)CN2C1=O` [AR00304154, (1S,4R,6S,14S,18R)-18-(2-Amino-6,7-dihydro-4H-thiazolo[5,4-c]pyridine-5-carbonyloxy)-14-tert-butoxycarbonylamino-2,15-dioxo-3,16-diaza-tricyclo[14.3.0.0^4,6]nonadec-7-ene-4-carboxylic acid], the figure is less than 10 µM.
